Data: ChEMBL document CHEMBL3507680, “University of Dundee, Gates Library screen for HepG2 cell viability”

Assay: Human HepG2 cell viability assay in 384 well format
Type: toxicity, cell-based
Set-up: dose 125 nL, time 70.5 hour; concentration not given beside the values
Details: HepG2 cells, read-out: Inhibition

Row | SMILES | cytotoxicity at 70.5 h [%]
1 | Cc1nnc(SCC(=O)Nc2csc3nc(=O)c(C)nn23)s1 | 7.9
2 | O=C(Cc1cnc(-c2c(Cl)cccc2Cl)s1)N1CCOCC1 | -13.9
3 | O=C(Cc1cnc(-c2c(Cl)cccc2Cl)s1)N1CCC2(CC1)OCCO2 | -14.1
4 | CC(C)NC(=O)CNC(=O)N1CCc2c([nH]c3ccc(Cl)cc23)C1 | -7.52
5 | O=C(CNC(=O)N1CCc2c([nH]c3ccc(Cl)cc23)C1)NC1CCCC1 | -0.711
6 | NC(=O)C1CCN(C(=O)Cc2cnc(-c3c(Cl)cccc3Cl)s2)CC1 | -13.5
7 | CCc1nc2c(c(C)c(C)n2Cc2cccnc2)c(N)c1C | 0.896
8 | O=C1CCCC2=C1C(c1ccc(Cl)cc1Cl)Nc1nonc1N2 (stereo unspecified) | -1.65
9 | CC(=O)N1CCN(C(=O)Cc2cnc(-c3c(Cl)cccc3Cl)s2)CC1 | -13.6
10 | Cc1nn2c(NC(=O)CSc3nccn3C)csc2nc1=O | 6.49
11 | CC(C)CNC(=O)Cc1cnc(-n2cccc2)s1 | -18.5
12 | CC(C)NC(=O)c1nc(COc2ccc3c(c2)OCO3)no1 | -8.71
13 | O=C(Cc1cnccn1)N1C[C@H]2CC[C@@H]1CN(Cc1cscn1)C2 | -12.8
14 | O=C1COc2cc(C(=O)NS(=O)(=O)c3ccc(F)c(F)c3)ccc2N1 | 10.9
15 | Cc1nc2ccnn2c(C)c1CCC(=O)N1CCN(CCO)CC1 | -9.84
16 | O=C1COc2cc(C(=O)NS(=O)(=O)c3cc(Cl)ccc3Cl)ccc2N1 | -8.05
17 | O=C1COc2cc(C(=O)NS(=O)(=O)c3ccc(F)cc3F)ccc2N1 | -13.6
18 | Cc1cnc2c(S(=O)(=O)NCC3CCOC3)cccc2c1 (stereo unspecified) | -10.2
19 | CN(C)c1cc(C(=O)N2CCCC2c2cnn(C)c2)ccn1 (stereo unspecified) | 4.19
20 | CCCN(CC)c1ccc(C(=O)N2CCCC2c2cnn(C)c2)cn1 (stereo unspecified) | -5.94
21 | CN(C)c1ccc(C(=O)N2CCCC2c2cnn(C)c2)cn1 (stereo unspecified) | -2.8

Row | SMILES | cytotoxicity at 70.5 h [%]
22 | CCOc1ccc(C(=O)N2CCCC2c2cnn(C)c2)cn1 (stereo unspecified) | -5.51
23 | CCc1ncc2c(n1)CN(CC(=O)Nc1ccncc1)CC2 | -3.06
24 | Cc1ncc(C(=O)NCCNC(=O)c2ccccc2)s1 | -6.97
25 | CC(C)(C)c1ncc(C(=O)NCCNc2ncccn2)s1 | -4.56
26 | CC(=O)NCCNC(=O)c1cnc(C(C)(C)C)s1 | -8.27
27 | CN(CCOc1cccc(F)c1)Cc1nc2c(cnn2C)c(=O)[nH]1 | -8.53
28 | CNC(=O)NC(=O)CCN1CCN(c2ccc(C(=O)OC)cc2)CC1C (stereo unspecified) | -9.55
29 | CC(=O)N1CCC(C(=O)NCc2cc[nH]n2)(c2ccccc2)CC1 | -5.74
30 | CC(C)(C)c1ncc(C(=O)NC(C(N)=O)c2ccccc2)s1 (stereo unspecified) | 15.8
31 | O=C(NCc1cc[nH]n1)N1CCCC(N2CCCC2)C1 (stereo unspecified) | -4.82
32 | COc1c(CNC2CCN(c3ccccn3)CC2)c(C(C)C)nn1C | 5.04
33 | CC(C(=O)N1CCCN(c2ccccc2C#N)CC1)n1cccn1 (stereo unspecified) | -7.8
34 | CC(C(=O)N1CCCN(c2ccc(C#N)cc2)CC1)n1cccn1 (stereo unspecified) | -3.9
35 | Cc1cnn(C2CCCN(C(=O)Cc3c(C)nn(C)c3C)C2)c1 (stereo unspecified) | 0.294
36 | Cc1ncc2c(n1)CN(CC(=O)Nc1nnc(C)s1)CC2 | -8.66
37 | Cc1ncc2c(n1)CN(CC(=O)Nc1cc(C)on1)CC2 | -5.61
38 | COC(=O)c1ccc(N2CCN(CC(=O)NC(N)=O)C(C)C2)cc1 (stereo unspecified) | -3.82
39 | Cc1ccc(F)c(NS(=O)(=O)c2cc3c(c(C(=O)O)c2)OCCO3)c1 | 2.59
40 | O=C(O)c1cc(S(=O)(=O)Nc2ccc(F)cc2F)cc2c1OCCO2 | -2.86
41 | Cc1cc(F)ccc1NS(=O)(=O)c1cc2c(c(C(=O)O)c1)OCCO2 | -4.92
42 | Cn1ccnc1CN1CCCN(C(=O)c2ccc(O)nc2)CC1 | -4.72

Row | SMILES | cytotoxicity at 70.5 h [%]
43 | Cn1ccnc1CN1CCCN(C(=O)c2ccc3[nH]nnc3c2)CC1 | -4.07
44 | CCCc1n[nH]c(C2CN(C(=O)c3cccnc3N(C)C)CCO2)n1 (stereo unspecified) | -0.878
45 | CN1CC(C(=O)NCCOc2ccc3c(c2)OCO3)CC1=O (stereo unspecified) | -1.1
46 | Cn1ncc2c(=O)[nH]c(CN3CCCC3CC(C)(C)C)nc21 (stereo unspecified) | -4
47 | Cn1ncc2c(=O)[nH]c(CN3CCCC3CCc3ccccc3)nc21 (stereo unspecified) | -1.66
48 | CCn1cc(NC(=O)C2CCN(CC(=O)NC3CCCC3)CC2)cn1 | -0.528
49 | O=C(CCc1ccccc1F)N1CCC(Nc2cccnn2)CC1 | -1.09
50 | Cc1nc(C)n(CC2CCCN(c3ccc(C#N)cn3)C2)n1 (stereo unspecified) | -3.58
51 | O=C(c1csc(-c2ccccn2)n1)N1CCCC1Cn1cccn1 (stereo unspecified) | -2.56
52 | O=C(c1csc(C2CC2)n1)N1CCCCC1Cn1cccn1 (stereo unspecified) | 21.8
53 | Cc1cc(NC(=O)CN(C)C2CCCN(c3cccnn3)C2)on1 (stereo unspecified) | 23.1
54 | O=C(c1csc(-c2cnccn2)n1)N1CCCC1Cn1cccn1 (stereo unspecified) | 2.23
55 | O=C(c1csc(-c2ncccn2)n1)N1CCCC1Cn1cccn1 (stereo unspecified) | 22.5
56 | O=C(CCOc1ccccc1F)N1CCCCC1Cn1cccn1 (stereo unspecified) | -4.38
57 | Cc1nc(C)n(CC2CN(Cc3cc(C#N)ccc3F)CCO2)n1 (stereo unspecified) | -1.96
58 | Cc1nc(C)n(CC2CN(c3ncccc3C#N)CCO2)n1 (stereo unspecified) | -0.989
59 | CN(CC(=O)NCc1ccccn1)C1CCCN(c2cccnn2)C1 (stereo unspecified) | 0.301
60 | Cc1nccn1C1CCCN(C(=O)c2ccc3nnc(C)n3c2)C1 (stereo unspecified) | 14.1
61 | CC(C)(C)C(=O)NCCC(=O)N1CCC(Nc2cccnn2)CC1 | -0.84
62 | Cc1cccc(-c2nc(CNC3CCc4nc(C)nn4C3)no2)c1 (stereo unspecified) | -3.36
63 | CC(=O)N(Cc1ncc(C)o1)C1CCN(CCc2cccs2)C1 (stereo unspecified) | 17.8

Row | SMILES | cytotoxicity at 70.5 h [%]
64 | CCc1nc(CN(C(C)=O)C2CCN(CCc3cccs3)C2)no1 (stereo unspecified) | 13
65 | CC(C)(C)c1nc(CN2CCOC(Cn3cncn3)C2)cs1 (stereo unspecified) | 1.47
66 | CCOc1cc(C(=O)N2CCCC(c3noc(C(C)C)n3)C2)ccn1 (stereo unspecified) | -3.39
67 | CC(C)c1nc(CN2CCOC(Cn3cncn3)C2)cs1 (stereo unspecified) | -3.19
68 | COCCN1CCC(CNC(=O)C2(c3cc(C)cc(C)c3)CC2)CC1 | -1.48
69 | CCc1cnc(CN(C(C)=O)C2CCN(CC3(O)CCCCC3)C2)o1 (stereo unspecified) | 13.4
70 | COCCN1CCC(CNC(=O)C2(c3cccc(Cl)c3)CC2)C1 (stereo unspecified) | -0.451
71 | COCCN1CCC(CNC(=O)C2(c3ccccc3)CCOCC2)C1 (stereo unspecified) | -4.78
72 | COc1ccc(C2CCCN2Cc2ccc(S(=O)(=O)N(C)C)o2)cc1 (stereo unspecified) | -1.88
73 | O=C(CN1CCCC1Cn1cncn1)NCCOc1ccccc1 (stereo unspecified) | -2.53
74 | CN(C)S(=O)(=O)c1ccc(CN2CCCC2c2cccs2)o1 (stereo unspecified) | 15.3
75 | Cn1cc(-c2nc(CN3CCOC(Cn4cncn4)C3)cs2)cn1 (stereo unspecified) | 1.83
76 | CCOc1ccc(C(=O)N(Cc2cnn(C)c2)C(C)C)cc1OCC | -3.25
77 | CCCN1CCC(CNC(=O)C2(c3cc(C)cc(C)c3)CCC2)C1 (stereo unspecified) | 16.9
78 | CCc1cnc(CN(C(C)=O)C2CCN(CCc3ccncc3)C2)o1 (stereo unspecified) | -1.81
79 | COc1ccc(C2=CCN(C(=O)C3CCC3)CC2)cc1 | -1.58
80 | CN(C)C(=O)CCS(=O)(=O)Cc1cc(Cl)c2c(c1)OCO2 | -3.5
81 | COCCN1CCC(CNC(=O)C2(c3ccc(F)cc3)CCC2)CC1 | -0.878
